Measurements: PubChem BioAssay (NCI)
“And” between values parts separate entries of the source, which are not always exact repeats. Equal entries are not always repeated.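 All cell lines were grown in 96-well plates and treated with compound for 48 hours. Here, GI50 denotes the concentration required for 50% inhibition of growth. Definition used: TGI = concentration required for complete inhibition of growth.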

How the values were obtained:
Test in all cases: NCI tumour cell line growth inhibition, 48 h
[1] = tested on: A498 renal
[2] = tested on: A549 NSCLC
[3] = tested on: HCT-15 colon
[4] = tested on: HOP-62 NSCLC
[5] = tested on: HT29 colon
[6] = tested on: MALME-3M melanoma
[7] = tested on: OVCAR-3 ovarian
[8] = tested on: OVCAR-8 ovarian
[9] = tested on: SR leukemia
[10] = tested on: U251 CNS

| Compound | GI50 [1] | TGI [1] | GI50 [2] [µM] | TGI [2] [µM] | GI50 [3] [µM] | TGI [3] [µM] | GI50 [4] [µM] | TGI [4] [µM] | GI50 [5] [µM] | TGI [5] [µM] | GI50 [6] [µM] | TGI [6] [µM] | GI50 [7] [µM] | TGI [7] [µM] | GI50 [8] [µM] | TGI [8] [µM] | GI50 [9] [µM] | GI50 [10] [µM] | TGI [10] [µM] | TGI [9] [µM] |
| --- | --- | --- | --- | --- | --- | --- | --- | --- | --- | --- | --- | --- | --- | --- | --- | --- | --- | --- | --- | --- |
| NC(=S)N=Nc1c(O)[nH]c2ccccc12 | 30.1 µM and 206 µM | 94.9 µM and 503 µM | 274 | 897 | 139 | 470 | 167 | 360 | 652 | > 1000 | 310 | 753 | 139 | 322 | 234 | 846 | 98.2 | 188 | 404 | – |
| NS(=O)(=O)c1ccc(N=Nc2c(=O)[nH]c3ccc4[nH]cccc4c23)cc1 | 0.671 µM | 1.45 µM | 1.89 | > 25 | 2.12 | > 25 | 0.653 | > 25 | 0.875 | > 25 | 1.05 | 3.05 | 0.375 | 1.98 | 0.342 | > 25 | 0.147 | 0.313 | > 25 | 0.652 |
| CCCNC(=O)Nc1ccc2c(c1)Cc1cc(N(CCCl)CCCl)ccc1-2 | – | 33.4 µM | – | > 100 | – | > 100 | – | > 100 | – | 17.8 | – | > 100 | – | 54.4 | – | > 100 | – | – | > 100 | > 100 |
| CCCCCCCCC(=O)NCCN(CCN)C(=O)CCCCCCCC | – | 43.8 µM | – | 29.9 | – | 10.3 | – | 30.6 | – | 7.15 | – | 33.6 | – | 30.9 | – | 26.8 | – | – | 9.26 | 13.8 |
| CC(=O)N1CCN(C=S)CC1 | – | > 100 µM | – | > 100 | – | > 100 | – | > 100 | – | > 100 | – | > 100 | – | > 100 | – | > 100 | – | – | > 100 | > 100 |
| CC(C)Cn1cnc2c(SCc3ccccn3)nc(N)nc21 | – | > 100 µM | – | > 100 | – | > 100 | – | > 100 | – | > 100 | – | > 100 | – | > 100 | – | > 100 | – | – | > 100 | > 100 |
